Results on two compounds are retold here after patent publication US5804576A, “Derivatives of 5-androsten-17-ones and 5-androstan-17-ones” (Research Corporation Technologies, Inc., priority 1986, dated 1998).

Read-outs that look alike come from different tables or passages of the source.

Data set [1] addresses T1, purified bovine adrenal G6PDH (Bos taurus, UniProt F1MMK2).
T1 construct: full-length, wild type, no tag
The data set is described as follows: Inhibition of purified bovine adrenal G6PDH. The format is biochemical. Particulars: read-out: Percent Inhibition (G6PDH). The method, boiled down: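 Inhibition of purified bovine adrenal G6PDH enzyme activity, run by the published Oertel and Rebelein (1969) procedure.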

Data set [2] concerns TPA (Tumor Promoter) Stimulation of Mouse Epidermal DNA. Kind of data set: Inhibition of TPA stimulation of mouse epidermal DNA synthesis (3H-thymidine incorporation), oral. The format is in vivo, mouse (ICR male). The conditions noted are these: 200 mg/kg or 100 mg/kg oral. The method, boiled down: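 Shaved male ICR mice (7-9 weeks) got steroid orally in sesame oil (0.5 ml/mouse), then topical TPA (10 μg in acetone) 1 h later. After 20 h, i.p. 60 μCi ³H-thymidine 20 min before sacrifice; epidermal DNA labelling expressed as cpm per μg DNA (diphenylamine assay).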
A general note: Uptake of a labelled nucleoside into DNA is a usual measure of proliferation.

In data set [3] the test system is TPA stimulation in DNA synthesis rate (mouse epidermis). The data set is described as follows: Inhibition of TPA stimulation of mouse epidermal DNA synthesis, intraperitoneal. Particulars: i.p. dose-response. Format: in vivo, mouse (ICR male). On the procedure:
ICR male mice (7-9 weeks old) were shaved on the back 1-2 days before use. Only mice showing no hair regrowth were used. Animals were orally intubated with a particular steroid suspended by homogenization in sesame oil or with sesame oil alone (controls). One hour later TPA (10 μg in 0.2 ml of acetone) or acetone vehicle was applied topically to the shaved skin. Twenty hours later, mice were injected i.p. with 60 μCi of ^3 H-thymidine 20 minutes before sacrifice. The animals were killed by cervical dislocation and the residual hair was removed with a depilatory agent. Epidermal scrapings were prepared according to the procedures of Hennings et al. (Cancer Res. 28, 53, 1968), homogenized in distilled water at 4° C., and the macromolecules precipitated with 0.4N trichloroacetic acid (TCA). Following 6 washes with absolute ethanol at room temperature, the nucleic acids were hydrolyzed with 0.5N TCA at 70° C. for 5 minutes. The hydrolysate (0.2 ml aliquots) were counted in an Intertechnique scintillation counter and assayed for DNA by the diphenylamine reaction.
The data are expressed as counts per minute (cpm) of tritium per μg of DNA.
Compound 2 or 3 in comparison with DHEA by Intraperitoneal Injection.
Steroids were suspended in sterile 95% saline--5% Emulphor and injected intraperitoneally. Otherwise conditions were the same as when steroids were orally administered.

Data set [4] in a line: Anti-obesity test (body weight, food consumption). Format: in vivo, mouse (male A/J). The conditions noted are these: n = 5. The method, boiled down: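 Male A/J mice, 5 weeks old on arrival, housed 5 per cage at 24 °C on a 12 h light/dark cycle, were given steroid in chow from one week after arrival; dietary concentrations were varied, or 0.54% or 0.36%. Body weight and food consumption (food added minus remaining) were recorded weekly.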

Data set [5] has as its system rat uterus. The data set is described as follows: Uterotrophic test, subcutaneous (Compound 2 vs. DHEA). The format is in vivo. Particulars: for Mean Uterine Weight: n = 4 or 5. On the procedure:
Twenty-two day old rats were obtained from Charles River Laboratories. Animals were used at 29 days of age. Test steroids were suspended by homogenization in sesame oil. Rats were orally intubated at 1-2 P.M. for 3 days with a test steroid in sesame oil or with sesame oil alone (control). On the 4th day the animals were killed and the uteri were removed and weighed.
Compound 2 vs. DHEA. Compounds Administered by Subcutaneous Injection
Steroids were dissolved in 2 ml ethanol and brought up to 5 ml volume with propylene glycol. Concentrations were such that 1 μl/gm body weight delivered the indicated dose.

Data set [6] deals with mammalian glucose-6-phosphate dehydrogenase (G6PDH). Particulars: cited from earlier work.
For data set [7], the system named is 3H-thymidine incorporation in mouse epidermis. The conditions noted are these: in vivo; cited from earlier work.
Data set [8] deals with Epstein-Barr virus-induced transformation of human lymphocytes. The conditions noted are these: cited from earlier work.
For data set [9], the system named is mouse breast epithilum. Particulars: in vivo; cited from earlier work.

T1 sequence (F1MMK2 31-70): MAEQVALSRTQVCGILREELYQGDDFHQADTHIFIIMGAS
T1 sequence (F1MMK2 101-575): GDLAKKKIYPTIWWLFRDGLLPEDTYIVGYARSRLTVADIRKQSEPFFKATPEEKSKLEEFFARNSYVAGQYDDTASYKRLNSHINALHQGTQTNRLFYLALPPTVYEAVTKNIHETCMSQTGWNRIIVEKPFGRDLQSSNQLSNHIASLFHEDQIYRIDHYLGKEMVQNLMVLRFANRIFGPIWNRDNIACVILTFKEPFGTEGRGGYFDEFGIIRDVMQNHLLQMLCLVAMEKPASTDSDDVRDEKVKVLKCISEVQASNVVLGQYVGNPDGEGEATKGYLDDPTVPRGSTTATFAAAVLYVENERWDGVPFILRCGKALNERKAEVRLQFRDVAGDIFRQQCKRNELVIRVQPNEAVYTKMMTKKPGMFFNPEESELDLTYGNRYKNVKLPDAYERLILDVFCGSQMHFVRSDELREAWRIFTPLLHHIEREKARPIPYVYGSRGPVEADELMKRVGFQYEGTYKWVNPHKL

Broadly, the inhibition is the relative decrease from the control value, in per cent. `C[C@]12CC[C@H](O)C[C@@H]1CC[C@@H]1[C@@H]2CC[C@]2(C)C(=O)CC[C@@H]12` [Compound 2]: in [1] (Conc. 0.1 μm), the inhibition at 0.1 µM was 36%. Also, the inhibition at 1 µM in data set [1] (Conc. 1 μm) turned out to be 64%. Besides, the inhibition at 10 µM in [1] (Conc. 10 μm) was 82%. Besides, the “blocking the TPA stimulation in DNA synthesis rate (in words)” value in data set [2] was “not active at 200 mg/kg or 100 mg/kg”. Moreover, the “blocking the TPA stimulation in DNA synthesis rate, compared with DHEA (in words)” value in data set [3] was “about as active as DHEA”. Besides, the mean weekly weight in [4] (0.35% of diet, week 0) worked out at 21.8 ± 1.6 grams; in data set [4] (0.35% of diet, week 1), 21.8 ± 1.3 grams; in data set [4] (0.35% of diet, week 2) it was 22.0 ± 1.2 grams; in data set [4] (0.35% of diet, week 3), 22.8 ± 1.3 grams; in data set [4] (0.35% of diet, week 4), 24.2 ± 1.1 grams; in data set [4] (0.35% of diet, week 5), 24.4 ± 1.7 grams. In addition, the mean weekly weight in [4] (0.35% of diet, week 6) was found to be 24.8 ± 1.5 grams; in data set [4] (0.35% of diet, week 7), 25.4 ± 1.7 grams; in data set [4] (0.7% of diet, week 0), 21.3 ± 1.8 grams; in [4] (0.7% of diet, week 1), 20.6 ± 2.3 grams; in [4] (0.7% of diet, week 2) it was 20.6 ± 0.5 grams; in [4] (0.7% of diet, week 3), 20.8 ± 0.8 grams. The mean weekly weight in data set [4] (0.7% of diet, week 4) came out at 22.6 ± 0.6 grams; in data set [4] (0.7% of diet, week 5), 22.4 ± 0.5 grams; in data set [4] (0.7% of diet, week 6), 23.5 ± 0.9 grams; in [4] (0.7% of diet, week 7), 23.8 ± 0.8 grams. For the same compound, the “Mean Uterine Weight” value amounted to 151 ± 32 Mgs in [5] (10 mg/kg s.c.) and 127 ± 32 Mgs in [5] (60 mg/kg s.c.). The “estrogenic activity (in words)” value in data set [5] (rat uterotrophic test, s.c.) was “Neither compounds 16 nor 2 are estrogenic”.
In the case of `C[C@]12CC[C@H](O)C[C@@H]1CC[C@@H]1[C@@H]2CC[C@]2(C)C(=O)[C@H](Br)C[C@@H]12` [16α-bromo-epiandrosterone, 3β-hydroxy-16α-bromo-5α-androstan-17-one], the “inhibition of mammalian G6PDH (in words)” value is recorded as “more potent inhibitor of mammalian G6PDH than DHEA” in [6] and “more active than DHEA in inhibiting G6PDH” in [6] (listed as 16α-Br-epiandrosterone). Besides, the “3H-thymidine incorporation in mouse epidermis (in words)” value in data set [7] was “more active than DHEA”. For the same compound, in data set [8], the “inhibition of Epstein-Barr virus-induced transformation (in words)” value is on record as “inhibitors of Epstein-Barr virus-induced transformation of human lymphocytes”. The “rate of [3H] thymidine incorporation into breast epithelium (in words)” value in data set [9] is given as “more active than DHEA”.
